Test results published in patent publication US7244758B2, “N-type calcium channel blockers” (Neuromed Pharmaceuticals Ltd., priority 2003, dated 2007).
Like-named read-outs stand apart in the source and are kept apart here.

Legend:
[1] = biological target: T1, rat brain N-type calcium channel subunits (α1B+α2δ+β1b) (Rattus norvegicus, UniProt Q02294); assay: N-type calcium channel block, whole cell patch clamp in HEK 293 cells; type: cell-based; conditions: holding −80 mV to +10 mV, 5 mM Ba
T1 construct: expressed in transfected cells; host or cells: HEK 293
T1 sequence (Q02294 whole entry): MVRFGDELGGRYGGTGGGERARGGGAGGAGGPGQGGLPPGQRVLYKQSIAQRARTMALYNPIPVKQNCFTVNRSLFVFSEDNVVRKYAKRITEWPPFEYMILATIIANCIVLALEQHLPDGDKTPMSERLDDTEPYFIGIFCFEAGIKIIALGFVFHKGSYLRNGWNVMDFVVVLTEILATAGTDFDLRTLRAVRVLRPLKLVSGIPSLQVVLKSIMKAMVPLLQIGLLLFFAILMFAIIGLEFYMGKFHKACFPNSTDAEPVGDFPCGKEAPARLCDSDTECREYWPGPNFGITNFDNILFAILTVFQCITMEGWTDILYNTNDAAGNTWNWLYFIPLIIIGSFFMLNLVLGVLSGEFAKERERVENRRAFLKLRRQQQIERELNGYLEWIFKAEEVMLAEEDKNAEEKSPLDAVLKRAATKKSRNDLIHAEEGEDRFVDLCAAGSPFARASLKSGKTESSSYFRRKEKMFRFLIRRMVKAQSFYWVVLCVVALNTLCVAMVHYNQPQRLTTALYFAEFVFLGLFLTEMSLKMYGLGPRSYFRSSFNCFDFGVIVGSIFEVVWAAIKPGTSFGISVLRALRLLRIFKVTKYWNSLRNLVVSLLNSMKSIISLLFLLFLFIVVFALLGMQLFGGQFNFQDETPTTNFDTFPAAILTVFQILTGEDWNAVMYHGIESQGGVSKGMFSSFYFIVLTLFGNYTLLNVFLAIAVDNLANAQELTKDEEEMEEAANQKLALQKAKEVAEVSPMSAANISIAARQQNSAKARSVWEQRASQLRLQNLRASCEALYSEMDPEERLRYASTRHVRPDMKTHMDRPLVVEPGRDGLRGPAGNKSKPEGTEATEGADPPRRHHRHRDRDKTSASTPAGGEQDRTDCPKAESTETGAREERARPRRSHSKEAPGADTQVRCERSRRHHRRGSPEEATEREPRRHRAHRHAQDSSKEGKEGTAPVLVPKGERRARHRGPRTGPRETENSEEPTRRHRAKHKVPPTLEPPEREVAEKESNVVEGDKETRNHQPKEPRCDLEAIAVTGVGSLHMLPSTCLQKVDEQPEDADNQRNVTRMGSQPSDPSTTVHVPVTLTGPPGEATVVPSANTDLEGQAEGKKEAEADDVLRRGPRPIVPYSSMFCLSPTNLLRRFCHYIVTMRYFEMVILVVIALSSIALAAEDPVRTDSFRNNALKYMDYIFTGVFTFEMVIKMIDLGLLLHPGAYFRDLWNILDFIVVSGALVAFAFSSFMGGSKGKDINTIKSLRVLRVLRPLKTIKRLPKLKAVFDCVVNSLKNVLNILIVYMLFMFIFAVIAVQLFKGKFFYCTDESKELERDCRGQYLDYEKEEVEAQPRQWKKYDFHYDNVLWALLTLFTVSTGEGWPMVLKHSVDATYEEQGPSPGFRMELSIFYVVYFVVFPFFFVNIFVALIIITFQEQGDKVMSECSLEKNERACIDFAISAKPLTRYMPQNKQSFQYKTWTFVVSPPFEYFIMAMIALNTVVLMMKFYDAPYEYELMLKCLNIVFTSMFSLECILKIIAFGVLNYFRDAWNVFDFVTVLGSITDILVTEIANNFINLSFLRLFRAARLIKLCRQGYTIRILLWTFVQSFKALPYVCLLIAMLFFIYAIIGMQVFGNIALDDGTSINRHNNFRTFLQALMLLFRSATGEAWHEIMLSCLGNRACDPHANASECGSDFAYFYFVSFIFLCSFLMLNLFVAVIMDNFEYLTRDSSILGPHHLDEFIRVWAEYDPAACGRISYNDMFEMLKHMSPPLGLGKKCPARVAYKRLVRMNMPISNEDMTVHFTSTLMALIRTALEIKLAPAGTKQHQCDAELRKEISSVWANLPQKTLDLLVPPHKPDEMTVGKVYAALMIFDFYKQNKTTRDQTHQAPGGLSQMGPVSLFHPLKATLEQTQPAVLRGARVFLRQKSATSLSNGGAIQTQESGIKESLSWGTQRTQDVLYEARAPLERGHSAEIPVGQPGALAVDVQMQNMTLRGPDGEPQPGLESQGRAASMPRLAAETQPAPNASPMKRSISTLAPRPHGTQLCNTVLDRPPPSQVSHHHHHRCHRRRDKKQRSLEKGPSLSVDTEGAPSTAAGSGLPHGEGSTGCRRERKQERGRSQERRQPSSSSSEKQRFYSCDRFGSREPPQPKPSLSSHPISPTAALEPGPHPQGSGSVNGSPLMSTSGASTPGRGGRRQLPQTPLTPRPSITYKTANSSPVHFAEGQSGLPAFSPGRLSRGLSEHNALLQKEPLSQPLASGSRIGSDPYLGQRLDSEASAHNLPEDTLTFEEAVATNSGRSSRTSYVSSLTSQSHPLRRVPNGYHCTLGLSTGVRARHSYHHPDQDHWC
Experimental: (§1) Antagonist activity was measured using whole cell patch recordings on human embryonic kidney cells either stably or transiently expressing rat α1B+α2δ+β1b channels (N-type channels) with 5 mM barium as a charge carrier. P/Q-type channels (α1A+α2δ+β1b cDNA subunits) and L-type channels (α1C+α2δ+β1b cDNA subunits) were also transiently expressed in HEK 293 cells.
For transient expression, host cells, such as human embryonic kidney cells, HEK 293 (ATCC# CRL 1573) were grown in standard DMEM medium supplemented with 2 mM glutamine and 10% fetal bovine serum. HEK 293 cells were transfected by a standard calcium-phosphate-DNA coprecipitation method using the rat α1B+β1b+α2δ N-type calcium channel subunits in a vertebrate expression vector (for example, see Current Protocols in Molecular Biology).
After an incubation period of from 24 to 72 hrs the culture medium was removed and replaced with external recording solution (see below). Whole cell patch clamp experiments were performed using an Axopatch 200B amplifier (Axon Instruments, Burlingame, Calif.) linked to an IBM compatible personal computer equipped with pCLAMP software. Borosilicate glass patch pipettes (Sutter Instrument Co., Novato, Calif.) were polished (Microforge, Narishige, Japan) to a resistance of about 4 MΩ when filled with cesium methanesulfonate internal solution (composition in MM: 109 CsCH3 SO4, 4 MgCl2, 9 EGTA, 9 HEPES, pH 7.2). Cells were bathed in 5 mM Ba^++ (in mM: 5 BaCl2, 1 MgCl2, 10 HEPES, 40 tetraethylammonium chloride, 10 glucose, 87.5 CsCl pH 7.2). […] Drugs were perfused directly into the vicinity of the cells using a microperfusion system.
Normalized dose-response curves were fit (Sigmaplot 4.0, SPSS Inc., Chicago, Ill.) by the Hill equation to determine IC50 values. Steady-state inactivation curves were plotted as the normalized test pulse amplitude following 5 s inactivating prepulses at +10 mV increments. Inactivation curves were fit (Sigmaplot 4.0) with the Boltzman equation, Ipeak (normalized)=1/(1+exp((V−Vh)z/25.6)), where V and Vh are the conditioning and half inactivation potentials, respectively, and z is the slope factor.
N-type calcium channel blocking activity was assayed in human embryonic kidney cells, HEK 293, stably transfected with the rat brain N-type calcium channel subunits (α1B+α2δ+β1b cDNA subunits). Alternatively, N-type calcium channels (α1B+α2δ+β1b cDNA subunits), L-type channels (α1C+α2δ+β1b cDNA subunits) and P/Q-type channels (α1A+α2δ+β1b cDNA subunits) were transiently expressed in HEK 293 cells. Briefly, cells were cultured in Dulbecco's modified eagle medium (DMEM) supplemented with 10% fetal bovine serum, 200 U/ml penicillin and 0.2 mg/ml streptomycin at 37° C. with 5% CO2. At 85% confluency cells were split with 0.25% trypsin/1 mM EDTA and plated at 10% confluency on glass coverslips. At 12 hours the medium was replaced and the cells transiently transfected using a standard calcium phosphate protocol and the appropriate calcium channel cDNA's. Fresh DMEM was supplied and the cells transferred to 28° C./5% CO2. Cells were incubated for 1 to 2 days to whole cell recording.
Whole cell patch clamp experiments were performed using an Axopatch 200B amplifier (Axon Instruments, Burlingame, Calif.) linked to a personal computer equipped with pCLAMP software. The external and internal recording solutions contained, respectively, 5 mM BaCl2, […], 10 mM HEPES, 40 mM TEACl, 10 mM glucose, 87.5 mM CsCl (pH 7.2) and 108 mM CsMS, 4 mM MgCl2, 9 mM EGTA, 9 mM HEPES (pH 7.2). Currents were typically elicited from a holding potential of −80 mV to +10 mV using Clampex software (Axon Instruments).

[2] = biological target: T2, human α1G T-type channels (Homo sapiens, UniProt O43497); assay: Block of α1G T-type channels, whole-cell patch clamp in HEK cells; type: cell-based
T2 construct: expressed in transfected cells
T2 sequence (O43497 whole entry): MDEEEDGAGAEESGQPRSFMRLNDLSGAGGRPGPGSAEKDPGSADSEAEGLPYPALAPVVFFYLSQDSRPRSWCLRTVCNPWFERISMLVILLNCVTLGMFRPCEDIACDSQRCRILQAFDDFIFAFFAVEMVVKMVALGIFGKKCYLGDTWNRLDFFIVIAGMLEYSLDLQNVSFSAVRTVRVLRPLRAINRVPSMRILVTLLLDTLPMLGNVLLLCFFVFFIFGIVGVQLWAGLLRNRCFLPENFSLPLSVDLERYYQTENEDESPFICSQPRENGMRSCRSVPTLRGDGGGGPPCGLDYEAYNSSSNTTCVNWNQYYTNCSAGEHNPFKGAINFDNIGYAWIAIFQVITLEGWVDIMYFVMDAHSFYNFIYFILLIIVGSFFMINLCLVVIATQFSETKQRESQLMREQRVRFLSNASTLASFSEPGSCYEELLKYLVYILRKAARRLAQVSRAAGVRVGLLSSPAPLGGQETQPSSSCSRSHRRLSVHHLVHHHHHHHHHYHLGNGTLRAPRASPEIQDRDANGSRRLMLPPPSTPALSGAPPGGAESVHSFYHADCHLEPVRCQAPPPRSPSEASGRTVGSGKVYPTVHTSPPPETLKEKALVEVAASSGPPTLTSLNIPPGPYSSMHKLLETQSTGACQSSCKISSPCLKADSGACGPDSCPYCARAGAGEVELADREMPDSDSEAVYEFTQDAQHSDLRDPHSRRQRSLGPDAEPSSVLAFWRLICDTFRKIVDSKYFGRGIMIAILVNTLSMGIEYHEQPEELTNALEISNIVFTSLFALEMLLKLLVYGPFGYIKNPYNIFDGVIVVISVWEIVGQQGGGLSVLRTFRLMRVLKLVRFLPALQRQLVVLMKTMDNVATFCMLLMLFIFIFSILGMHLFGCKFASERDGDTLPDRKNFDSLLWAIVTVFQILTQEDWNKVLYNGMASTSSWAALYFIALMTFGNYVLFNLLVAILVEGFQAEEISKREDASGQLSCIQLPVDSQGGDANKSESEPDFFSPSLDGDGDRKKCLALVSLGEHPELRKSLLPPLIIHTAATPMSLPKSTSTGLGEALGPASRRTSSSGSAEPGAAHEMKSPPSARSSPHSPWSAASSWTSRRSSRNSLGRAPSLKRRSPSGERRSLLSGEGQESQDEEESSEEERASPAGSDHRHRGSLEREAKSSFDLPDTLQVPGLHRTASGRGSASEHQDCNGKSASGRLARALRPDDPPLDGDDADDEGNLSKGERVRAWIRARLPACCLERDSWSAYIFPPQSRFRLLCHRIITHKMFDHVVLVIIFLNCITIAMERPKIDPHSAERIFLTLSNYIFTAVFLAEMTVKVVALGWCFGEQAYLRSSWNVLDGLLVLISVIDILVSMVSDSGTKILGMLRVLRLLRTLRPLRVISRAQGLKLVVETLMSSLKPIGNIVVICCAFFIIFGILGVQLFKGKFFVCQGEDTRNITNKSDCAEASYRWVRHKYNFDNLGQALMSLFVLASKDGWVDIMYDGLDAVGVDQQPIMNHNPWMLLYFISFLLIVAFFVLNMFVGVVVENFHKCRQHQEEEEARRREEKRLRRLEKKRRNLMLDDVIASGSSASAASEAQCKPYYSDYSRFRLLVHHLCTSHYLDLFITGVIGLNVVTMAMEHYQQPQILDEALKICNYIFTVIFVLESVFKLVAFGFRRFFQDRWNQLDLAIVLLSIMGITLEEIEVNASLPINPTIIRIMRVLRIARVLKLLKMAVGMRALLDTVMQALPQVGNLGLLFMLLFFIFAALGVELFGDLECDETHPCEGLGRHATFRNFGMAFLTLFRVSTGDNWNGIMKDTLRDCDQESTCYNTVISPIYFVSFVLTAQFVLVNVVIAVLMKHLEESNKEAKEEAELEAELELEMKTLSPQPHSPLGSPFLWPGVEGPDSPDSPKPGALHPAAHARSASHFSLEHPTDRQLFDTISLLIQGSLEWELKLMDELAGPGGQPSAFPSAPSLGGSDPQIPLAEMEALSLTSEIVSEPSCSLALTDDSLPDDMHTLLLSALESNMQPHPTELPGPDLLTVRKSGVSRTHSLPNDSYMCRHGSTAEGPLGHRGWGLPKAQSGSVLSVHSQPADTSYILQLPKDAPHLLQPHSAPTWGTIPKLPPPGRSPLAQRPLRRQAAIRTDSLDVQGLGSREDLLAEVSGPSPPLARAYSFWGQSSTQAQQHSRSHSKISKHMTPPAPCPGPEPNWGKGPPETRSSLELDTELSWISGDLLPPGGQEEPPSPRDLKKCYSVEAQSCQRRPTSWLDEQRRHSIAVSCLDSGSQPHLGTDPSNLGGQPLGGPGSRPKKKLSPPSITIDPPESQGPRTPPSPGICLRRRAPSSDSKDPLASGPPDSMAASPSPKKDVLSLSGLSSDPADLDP
Experimental: Standard patch-clamp techniques were employed to identify blockers of T-type currents. Briefly, previously described HEK cell lines stably expressing human α1G T-type channels were used for all the recordings (passage #: 4-20, 37° C., 5% CO2). To obtain T-type currents, plastic dishes containing semi-confluent cells were positioned on the stage of a ZEISS AXIOVERT S100 microscope after replacing the culture medium with external solution (see below). Whole-cell patches were obtained using pipettes (borosilicate glass with filament, O.D.: 1.5 mm, I.D.: 0.86 mm, 10 cm length), fabricated on a SUTTER P-97 puller with resistance values of ˜5 MΩ (see below for internal solution).
In the non-inactivating protocol, the holding potential is set at −110 mV and with a pre-pulse at −100 mV for 1 second prior to the test pulse at −40 mV for 50 ms. […]
Test compounds were dissolved in external solution, 0.1-0.01% DMSO. After ˜10 min rest, they were applied by gravity close to the cell using a WPI microfil tubing. The “non-inactivated” pre-pulse was used to examine the resting block of a compound. The “inactivated” protocol was employed to study voltage-dependent block. However, the initial data shown below were mainly obtained using the non-inactivated protocol only. IC50 values are shown for various compounds of the invention in Table 6.

rat formalin model = assay: Formalin-induced pain model (paw flinches); type: in vivo; conditions: 30 mg/kg IP, 10 min before formalin, saline control=100%
Experimental: The effects of intrathecally delivered compounds of the invention on the rat formalin model were measured. The compounds were reconstituted to stock solutions of approximately 10 mg/ml in propylene glycol. Eight Holtzman male rats of 275-375 g size were randomly selected per test article.
The following study groups were used, with test article, vehicle control (propylene glycol) and saline delivered intraperitoneally (IP):
Prior to initiation of drug delivery baseline behavioral and testing data were taken.
On the morning of testing, a small metal band (0.5 g) was loosely placed around the right hind paw. The rat was placed in a cylindrical Plexiglas chamber for adaptation a minimum of 30 minutes. Test Article or Vehicle Control Article was administered 10 minutes prior to formalin injection (50 μl of 5% formalin) into the dorsal surface of the right hindpaw of the rat. The animal was then placed into the chamber of the automated formalin apparatus where movement of the formalin injected paw was monitored and the number of paw flinches tallied by minute over the next 60 minutes (Malmberg, A. B., et al., Anesthesiology (1993) 79:270-281).
Results are presented as Maximum Possible Effect±SEM, where saline control=100%.

[3] = tested on: P/Q-type channels (α1A+α2δ+β1b); assay: Selectivity patch clamp, P/Q-type channels transiently expressed in HEK 293 cells; type: cell-based; conditions: N-type vs P/Q-type
Experimental: as §1
(§2) After an incubation period of from 24 to 72 hrs the culture medium was removed and replaced with external recording solution (see below). Whole cell patch clamp experiments were performed using an Axopatch 200B amplifier (Axon Instruments, Burlingame, Calif.) linked to an IBM compatible personal computer equipped with pCLAMP software. Borosilicate glass patch pipettes (Sutter Instrument Co., Novato, Calif.) were polished (Microforge, Narishige, Japan) to a resistance of about 4 MΩ when filled with cesium methanesulfonate internal solution (composition in MM: 109 CsCH3 SO4, 4 MgCl2, 9 EGTA, 9 HEPES, pH 7.2). Cells were bathed in 5 mM Ba^++ (in mM: 5 BaCl2, 1 MgCl2, 10 HEPES, 40 tetraethylammonium chloride, 10 glucose, 87.5 CsCl pH 7.2). Current data shown were elicited by a train of 100 ms test pulses at 0.066 Hz from −100 mV and/or −80 mV to various potentials (min. −20 mV, max. +30 mV). Drugs were perfused directly into the vicinity of the cells using a microperfusion system. […]

[4] = tested on: L-type channels (α1C+α2δ+β1b); assay: Selectivity patch clamp, L-type channels transiently expressed in HEK 293 cells; type: cell-based; conditions: N-type vs L-type
Experimental: as §1, §2

[5] = low frequency stimulation 0.067 Hz (tonic block), read-out: IC50 at 0.067 Hz
[6] = pulse frequency 0.2 Hz (frequency dependent block), read-out: IC50 at 0.2 Hz
[7] = non-inactivating protocol, pre-pulse −100 mV (resting block), read-out: IC50 at −100 mV
[8] = inactivation protocol (voltage-dependent block), read-out: IC50 at −80 mV

Structure (SMILES)	IC50 [1, 5] [nM]	IC50 [1, 6] [nM]	IC50 [2, 7] [nM]	Maximum Possible Effect ± SEM, Phase I (rat formalin model) [%]	Maximum Possible Effect ± SEM, Phase II (rat formalin model) [%]	Maximum Possible Effect ± SEM, Phase IIA (rat formalin model) [%]	IC50 [2, 8] [nM]	selectivity for N-type over P/Q-type channels [3]	selectivity for N-type over L-type channels [4]
O=C(NCC1CCN(C(=O)CCCCC(c2ccc(F)cc2)c2ccc(F)cc2)C1)c1cc(C(F)(F)F)cc(C(F)(F)F)c1 (stereo not drawn) [Compound P24]	380	210	12	66 ± 11	38 ± 7	20 ± 4			
COc1c(C(C)(C)C)cc(C(=O)NCC2CCN(C(=O)CCCCC(c3ccc(F)cc3)c3ccc(F)cc3)C2)cc1C(C)(C)C (stereo not drawn) [Compound P13]			1.5	85 ± 9	86 ± 7	86 ± 5	0.7		
O=C(NCC1CCN(C(c2ccccc2)c2ccccc2)C1)NC(c1ccccc1)c1ccccc1 (stereo not drawn) [Compound P47]	295	185	24				8		
c1ccc(C(c2ccccc2)N2CCC(CN(CCN(c3ccccc3)c3ccccc3)CCN(c3ccccc3)c3ccccc3)C2)cc1 (stereo not drawn) [Compound P59]	8000	2000	40000				6000		
CN(C(=O)CN(CC(=O)N(C)c1ccccc1)CC1CCN(C(c2ccccc2)c2ccccc2)C1)c1ccccc1 (stereo not drawn) [Compound P60]	57	45	618				227		
O=C(NCC1CCN(C(=O)CCCCC(c2ccc(F)cc2)c2ccc(F)cc2)C1)c1cc(C(F)(F)F)cc(C(F)(F)F)c1 (stereo not drawn) [Compound P49]	136	89	18				8		
O=C(CC(c1ccccc1)c1ccccc1)NCC1CCN(C(c2ccccc2)c2ccc(C(F)(F)F)cc2)C1 (stereo not drawn) [Compound P39]	179	257	12				3		
CC(C)(C)c1cc(C(=O)NCC2CCN(C(=O)CCCCC(c3ccc(F)cc3)c3ccc(F)cc3)C2)cc(C(C)(C)C)c1 (stereo not drawn) [Compound P44]	265	119	52				29		
O=C(COc1ccc(Cl)cc1)NCC1CCN(C(=O)CCCCC(c2ccc(F)cc2)c2ccc(F)cc2)C1 (stereo not drawn) [Compound P36]	100	20	30				12		
CC(C)(C)c1cc(C(=O)NCC2CCN(C(=O)CCCCC(c3ccc(F)cc3)c3ccc(F)cc3)C2)cc(C(C)(C)C)c1 (stereo not drawn) [Compound P17]	60		29	74 ± 8	84 ± 9	79 ± 9		approximately 31 fold	greater than 75 fold
COc1cc(C(=O)NCC2CCN(C(=O)CCCCC(c3ccc(F)cc3)c3ccc(F)cc3)C2)cc(OC)c1OC (stereo not drawn) [Compound P3]	417		86						
